From patent US20210115040A1, “OGA INHIBITOR COMPOUNDS” (Janssen Pharmaceutica NV, priority 2018, published 2021)

Target: T1, recombinant human Meningioma Expressed Antigen 5 (MGEA5), also referred to as O-GlcNAcase (OGA) (Homo sapiens, UniProt O60502)
T1 construct: Full length OGA enzyme was purchased at OriGene (cat #TP322411); purchased OriGene TP322411
T1 sequence (O60502 1-916): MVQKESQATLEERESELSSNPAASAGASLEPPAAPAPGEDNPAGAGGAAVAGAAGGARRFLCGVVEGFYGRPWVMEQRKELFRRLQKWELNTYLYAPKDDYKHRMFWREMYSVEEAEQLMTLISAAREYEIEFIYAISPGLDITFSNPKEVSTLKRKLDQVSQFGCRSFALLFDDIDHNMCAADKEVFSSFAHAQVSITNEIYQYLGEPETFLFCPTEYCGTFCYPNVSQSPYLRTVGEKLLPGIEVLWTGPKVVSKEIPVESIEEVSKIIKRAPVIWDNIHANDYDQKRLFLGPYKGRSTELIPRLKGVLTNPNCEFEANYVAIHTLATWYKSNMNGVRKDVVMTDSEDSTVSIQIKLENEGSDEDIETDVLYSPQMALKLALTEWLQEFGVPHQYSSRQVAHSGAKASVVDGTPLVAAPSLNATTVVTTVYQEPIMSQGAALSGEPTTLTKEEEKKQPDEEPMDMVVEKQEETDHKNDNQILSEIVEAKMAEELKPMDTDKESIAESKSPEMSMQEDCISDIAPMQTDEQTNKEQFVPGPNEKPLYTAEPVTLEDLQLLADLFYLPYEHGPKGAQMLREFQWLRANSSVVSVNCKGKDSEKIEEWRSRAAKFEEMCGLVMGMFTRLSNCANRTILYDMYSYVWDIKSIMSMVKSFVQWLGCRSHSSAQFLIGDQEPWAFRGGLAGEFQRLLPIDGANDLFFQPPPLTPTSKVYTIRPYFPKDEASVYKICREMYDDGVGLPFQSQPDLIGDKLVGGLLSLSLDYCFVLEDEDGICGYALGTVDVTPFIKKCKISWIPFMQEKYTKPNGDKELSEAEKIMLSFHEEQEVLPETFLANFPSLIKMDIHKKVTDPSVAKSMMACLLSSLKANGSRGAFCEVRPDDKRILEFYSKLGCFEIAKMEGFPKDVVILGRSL
Test: OGA biochemical assay (inhibition of FM-GlcNAc hydrolysis, fluorescence)
Details: FM-GlcNAc substrate
Outline: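 Full-length OGA (2 nM) pre-incubated 60 min at room temperature with compound, then FM-GlcNAc (100 uM final) hydrolysed 6 h at room temperature in 200 mM citrate/phosphate pH 7.2 with 0.005% Tween-20. Stopped with carbonate pH 11.0; fluorescein read at ex 485/em 538 nm. IC50 and Hill coefficient from curve fit between no-inhibitor and saturating-standard controls.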

IC50 (6 h at room temperature, read-out: Enzymatic hOGA, pIC50 (converted)): 12.6 nM
Emax (maximal effect, read-out: Enzymatic Emax (%)): 99%
Compound: Cc1cc(C2CCCN(C(C)c3ccc4sc(C)nc4n3)C2)cc(C)n1 (racemic) [Compound 39]
